Read-outs that look alike come from different tables or passages of the source.
How the values were obtained:
MATE1 [1] = molecular target: T1, MATE1 (Homo sapiens, UniProt Q96FL8); test: Concentration-dependent uptake (Michaelis-Menten) via MATE1 in HEK293 cells; conditions: for Km: read-out: MATE1 KM
T1 sequence (Q96FL8 1-570): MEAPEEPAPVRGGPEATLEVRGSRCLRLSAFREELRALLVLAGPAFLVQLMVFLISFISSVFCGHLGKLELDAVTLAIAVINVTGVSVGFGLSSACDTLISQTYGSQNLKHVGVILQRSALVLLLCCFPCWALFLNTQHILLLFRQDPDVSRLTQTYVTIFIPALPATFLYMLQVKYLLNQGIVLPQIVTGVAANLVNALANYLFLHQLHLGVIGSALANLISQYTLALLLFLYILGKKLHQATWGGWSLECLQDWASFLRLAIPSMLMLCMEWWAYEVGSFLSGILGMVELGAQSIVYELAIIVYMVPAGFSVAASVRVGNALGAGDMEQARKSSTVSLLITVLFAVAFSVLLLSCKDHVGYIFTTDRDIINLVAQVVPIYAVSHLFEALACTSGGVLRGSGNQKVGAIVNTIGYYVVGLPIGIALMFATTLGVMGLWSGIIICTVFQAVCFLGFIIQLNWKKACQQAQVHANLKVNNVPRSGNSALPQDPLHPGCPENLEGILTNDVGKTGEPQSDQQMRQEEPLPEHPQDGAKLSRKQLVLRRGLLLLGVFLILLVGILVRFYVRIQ

hCMEC [2] = test: TS MDAI hCMEC (Table S2); type: cell-based, human; design: scale not given here
MATE2K [3] = molecular target: T2, MATE2K (Homo sapiens, UniProt Q86VL8); test: Concentration-dependent uptake (Michaelis-Menten) via MATE2K in HEK293 cells; conditions: HEK293, 1 min, net uptake; for Km: read-out: MATE2K KM
T2 sequence (Q86VL8 1-566 isoform Q86VL8-3): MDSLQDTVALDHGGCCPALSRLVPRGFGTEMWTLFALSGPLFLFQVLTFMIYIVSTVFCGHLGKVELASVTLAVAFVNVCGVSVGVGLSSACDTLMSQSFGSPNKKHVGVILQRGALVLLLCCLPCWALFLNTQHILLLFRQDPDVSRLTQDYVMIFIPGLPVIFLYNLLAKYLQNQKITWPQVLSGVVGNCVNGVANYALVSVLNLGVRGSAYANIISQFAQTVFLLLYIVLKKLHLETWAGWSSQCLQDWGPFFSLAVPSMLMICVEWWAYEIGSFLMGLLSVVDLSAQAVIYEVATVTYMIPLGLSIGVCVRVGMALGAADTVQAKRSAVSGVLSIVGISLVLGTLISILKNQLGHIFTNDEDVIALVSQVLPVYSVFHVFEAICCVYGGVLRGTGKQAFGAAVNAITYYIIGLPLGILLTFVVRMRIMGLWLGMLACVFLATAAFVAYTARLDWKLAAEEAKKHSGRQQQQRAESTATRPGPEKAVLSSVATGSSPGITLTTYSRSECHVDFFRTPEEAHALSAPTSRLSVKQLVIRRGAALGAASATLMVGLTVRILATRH

hCMEC [4] = test: TS DPH hCMEC (Table S2); type: cell-based, human; design: scale not given here
[5] = system: MATE1, MATE2K, OCT1, OCT2; test: Substrate specificity and overlap among the four transporters (ratio cutoff 2); type: cell-based, human
MATE2K [6] = molecular target: T2, MATE2K; test: Uptake ratio in MATE2K-overexpressing HEK293 cells vs empty vector (2.5 μM, 1 min, HPLC-MS/MS); type: cell-based; conditions: for MATE2K ratio in this study: Table S1
MATE1 [7] = molecular target: T1, MATE1; test: Uptake ratio in MATE1-overexpressing HEK293 cells vs empty vector (2.5 μM, 1 min, HPLC-MS/MS); type: cell-based; conditions: for MATE1 ratio in this study: Table S1
[8] = fold uptake over empty vector, 2.5 μM, 1 min
[9] = uptake ratio MATE2K-overexpressing vs empty-vector HEK293 cells, 2.5 μM, 1 min, mean
[10] = uptake ratio MATE1-overexpressing vs empty-vector HEK293 cells, 2.5 μM, 1 min, mean

Row | Compound | MATE1 Vmax (MATE1 [1]; HEK293, 1 min, net uptake) | MATE2K Vmax (MATE2K [3]) | Substrate specificity among MATE1, MATE2K, OCT1, OCT2 ([5]; transport ratio cutoff of 2) | MATE2K ratio (MATE2K [6]; [8]) | MATE1 ratio (MATE1 [7]; [8]) | Km (MATE1 [1]; HEK293, 1 min, net uptake) [µM] | Km (MATE2K [3]) [µM] | also measured
1 | Cc1c(N)c(=O)n(-c2ccccc2)n1C [4-Aminoantipyrine] | linear | linear |  |  |  |  |  | TS MDAI hCMEC (hCMEC [2]; Table S2): 1.01; TS DPH hCMEC (hCMEC [4]; Table S2): 1.09
2 | C[C@H](CS)C(=O)N1CCC[C@H]1C(=O)O [Captopril] |  |  |  |  |  |  |  | Substrate specificity among MATE1, MATE2K, OCT1, OCT2 [5]: no substrates of the four transporters
3 | C[C@H](N)[C@@H](O)c1ccccc1 [Cathine] |  |  | OCT2 only |  |  |  |  | TS DPH hCMEC (hCMEC [4]): 0.35
4 | CC1(C)N=C(N)N=C(N)N1c1ccc(Cl)cc1 [Cycloguanil] |  |  | All four transporters | 10.75 | 21.02 |  |  | MATE2K ratio in this study (MATE2K [6]; 2.5 μM, 1 min): 10.75; MATE1 ratio in this study (MATE1 [7]; 2.5 μM, 1 min): 21.02
5 | CC(CCc1ccc(O)cc1)NCCc1ccc(O)c(O)c1 (stereo not drawn) [Dobutamine] | 2586 pmol × mg protein^–1 × min^–1 | 493 pmol × mg protein^–1 × min^–1 |  | 2.77 | 17.41 | 88.6 | 86.4 | TS MDAI hCMEC (hCMEC [2]; Table S2): 0.99; TS DPH hCMEC (hCMEC [4]; Table S2): 0.67
6 | NCCc1ccc(O)c(O)c1 [Dopamine] | 10,148 pmol × mg protein^–1 × min^–1 | 1219 pmol × mg protein^–1 × min^–1 |  | 1.97 | 39.94 | 530 | 961 | 
7 | Nc1nc(=O)n([C@@H]2CS[C@H](CO)O2)cc1F [Emtricitabine] | 4523 pmol × mg protein^–1 × min^–1 | 2634 pmol × mg protein^–1 × min^–1 |  | 2.88 | 3.22 | 992 | 873 | MATE2K ratio in this study (MATE2K [6]; 2.5 μM, 1 min): 2.88; MATE1 ratio in this study (MATE1 [7]; 2.5 μM, 1 min): 3.22
8 | CNC[C@H](O)c1ccc(O)c(O)c1 [Epinephrine] | 22,773 pmol × mg protein^–1 × min^–1 | 2968 pmol × mg protein^–1 × min^–1 |  |  |  | 1080 | 1510 | 
9 | Nc1ccncc1 [Fampridine (4-aminopyridine), 4-aminopyridine] |  |  | OCT2 only |  |  |  |  | 
10 | CCCCCCN [Hexylamine] |  |  | OCT1 only |  |  |  |  | MATE2K ratio (MATE2K [6]): 1.08; MATE1 ratio (MATE1 [7]): 1.21
11 | CC(=O)OC(C)C[N+](C)(C)C (stereo not drawn) [Methacholine] | 17,843 pmol × mg protein^–1 × min^–1 | 1240 pmol × mg protein^–1 × min^–1 |  | 2.57 | 21.58 | 1990 | 1400 | 
12 | COC(=O)C(c1ccccc1)C1CCCCN1 (stereo not drawn) [Methylphenidate] |  |  | OCT2 only |  |  |  |  | TS MDAI hCMEC (hCMEC [2]): 0.24; TS DPH hCMEC (hCMEC [4]): 0.33
13 | CC[N+](CC)(CC)CC(=O)Nc1c(C)cccc1C [N-Ethyl-lidocaine] |  |  | All four transporters | 14.68 | 36.39 |  |  | 
14 | N=C(N)c1ccc2cc(OC(=O)c3ccc(N=C(N)N)cc3)ccc2c1 [Nafamostat] |  |  | MATE1 only |  |  |  |  | MATE2K ratio (MATE2K [6]): 1.64; MATE1 ratio (MATE1 [7]): 5.45
15 | NC[C@H](O)c1ccc(O)c(O)c1 [Norepinephrine] | 18,720 pmol × mg protein^–1 × min^–1 | 673 pmol × mg protein^–1 × min^–1 |  |  |  | 1870 | 1150 | 
16 | COc1cc(C(O)CN)ccc1O (stereo not drawn) [Normetanephrine] |  |  | OCT1 only | 0.82 | 1.80 |  |  | 
17 | COc1ccc2c3c1O[C@H]1C(=O)CC[C@@]4(O)[C@@H](C2)NCC[C@]314 [Noroxycodone] |  |  | OCT1 only |  |  |  |  | MATE2K ratio (MATE2K [6]): 1.13; MATE1 ratio (MATE1 [7]): 1.39
18 | CC(C)NCC(O)c1cc(O)cc(O)c1 (stereo not drawn) [Orciprenaline] |  |  | All four transporters | 23.10 | 34.88 |  |  | 
19 | CCOC(=O)C1(c2ccccc2)CCN(C)CC1 [Pethidine] |  |  | MATE2K only |  |  |  |  | 
20 | [H]/N=C(/N)N/C(=N/[H])NCCc1ccccc1 [Phenformin] | 8451 pmol × mg protein^–1 × min^–1 | 1361 pmol × mg protein^–1 × min^–1 |  | 3.01 | 19.54 | 101 | 73.1 | 
21 | CNC[C@H](O)c1cccc(O)c1 [Phenylephrine] | 11,611 pmol × mg protein^–1 × min^–1 | 776 pmol × mg protein^–1 × min^–1 |  | 1.75 | 13.78 | 474 | 434 | TS MDAI hCMEC (hCMEC [2]; Table S2): 1.03; TS DPH hCMEC (hCMEC [4]; Table S2): 0.76
22 | Cc1ncc(CO)c(CO)c1O [Pyridoxin] | 10,014 pmol × mg protein^–1 × min^–1 | 593 pmol × mg protein^–1 × min^–1 |  | 1.18 | 2.33 | 4230 | 495 | MATE2 (MATE2K [6]; [9]): 1.18; MATE1 (MATE1 [7]; [10]): 2.33
23 | COCCn1c2c([n+](Cc3cnccn3)c1C)C(=O)c1ccccc1C2=O [Sepantronium] |  | 78.5 pmol × mg protein^–1 × min^–1 |  |  |  | 80.9 | 8.54 | MATE1 Vmax (MATE1 [1]): 304 pmol × mg protein^–1 × min^–1; TS MDAI hCMEC (hCMEC [2]): 0.99; MATE2 (MATE2K [6]): 9.45; MATE2K ratio (MATE2K [6]): 9.45; TS DPH hCMEC (hCMEC [4]): 1.01; MATE1 (MATE1 [7]): 6.15; MATE1 ratio (MATE1 [7]): 6.15
24 | O=C(O[C@H]1CN2CCC1CC2)N1CCc2ccccc2[C@@H]1c1ccccc1 [Solifenacin] |  |  |  | 1.22 | 1.28 |  |  | TS MDAI hCMEC (hCMEC [2]; Table S2): 0.44; MATE2 (MATE2K [6]; [9]): 1.22; TS DPH hCMEC (hCMEC [4]; Table S2): 0.27; MATE1 (MATE1 [7]; [10]): 1.28
25 | CC[C@@]1(O)C(=O)OCc2c1cc1n(c2=O)Cc2cc3c(CN(C)C)c(O)ccc3nc2-1 [Topotecan] |  |  | MATE1 only |  |  |  |  | MATE2K ratio in this study (MATE2K [6]; 2.5 μM, 1 min): 1.61; MATE2 (MATE2K [6]; [9]): 1.61; MATE1 ratio in this study (MATE1 [7]; 2.5 μM, 1 min): 2.53; MATE1 (MATE1 [7]; [10]): 2.53
26 | NCCc1ccc(O)cc1 [Tyramine] | 5948 pmol × mg protein^–1 × min^–1 | 2868 pmol × mg protein^–1 × min^–1 |  |  |  | 136 | 1060 | MATE2K ratio in this study (MATE2K [6]; 2.5 μM, 1 min): 1.39; MATE2 (MATE2K [6]; [9]): 1.39; MATE1 ratio in this study (MATE1 [7]; 2.5 μM, 1 min): 10.06; MATE1 (MATE1 [7]; [10]): 10.06
27 | COc1cc(Cc2cnc(N)nc2N)cc(OC)c1OC [trimethoprim] |  |  | OCT1 only |  |  |  |  | MATE2 (MATE2K [6]; [9]): 1.23; MATE1 (MATE1 [7]; [10]): 1.52
28 | thyrotropin-releasing hormone |  |  | no substrates of the four transporters |  |  |  |  | 

From article PMC12207590, “Substrate Specificity of the Organic Cation Transporters MATE1 and MATE2K and Functional Overlap with OCT1 and OCT2” (Journal of Medicinal Chemistry, 2025)
